Test results: publication PMC7441537 (Journal of medicinal chemistry, 2019)
Marks after values point to notes of the source that are not given here.

Assays:
HIV-1 L100I = type: cell-based; conditions: MT-4 cells; CC50/EC50
HIV-1 K103N = type: cell-based; conditions: MT-4 cells; CC50/EC50
HIV-1 Y181C = type: cell-based; conditions: MT-4 cells; CC50/EC50
HIV-1 Y188L = type: cell-based; conditions: MT-4 cells; CC50/EC50
HIV-1 E138K = type: cell-based; conditions: MT-4 cells; CC50/EC50
HIV-1 F227L+V106A = type: cell-based; conditions: MT-4 cells; CC50/EC50
WT HIV-1 (IIIB) = conditions: MT-4 cells
[1] = system: NNRTI-resistant strain K103N+Y181C (RES056); conditions: MT-4 cells
in vitro = conditions: human
WT HIV-1 (NL4-3) = assay: Anti-HIV-1 activity against wild-type NL4-3 in TZM-bl cell lines

Structure (SMILES) | SI IIIB (CC50/EC50) (WT HIV-1 (IIIB)) | SI RES056 (CC50/EC50) [1] | further results
Cc1cc(C#N)cc(C)c1Oc1nc(NC2CCN(Cc3ccc(S(N)(=O)=O)cc3)CC2)nc2c1SCCC2 [13f1, 4-((4-((4-(4-Cyano-2,6-dimethylphenoxy)-7,8-dihydro-6H-thiopyrano[3,2-d]pyrimidin-2-yl)amino)piperidin-1-yl)methyl)benzenesulfonamide] | ≥54889 | ≥3650 | SI L100I (HIV-1 L100I): ≥ 11488; SI K103N (HIV-1 K103N): ≥ 28500; SI Y181C (HIV-1 Y181C): ≥ 14250; SI Y188L (HIV-1 Y188L): ≥ 18525; SI E138K (HIV-1 E138K): ≥ 17435; SI F227L+V106A (HIV-1 F227L+V106A): ≥ 6645
Cc1cc(C#N)cc(C)c1Oc1nc(N[C@@H]2CCN(Cc3ccc(S(C)(=O)=O)cc3)C2)nc2ccsc12 [8c4, (R)-3,5-Dimethyl-4-((2-((1-(4-(methylsulfonyl)benzyl)pyrrolidin-3-yl)amino)thieno[3,2-d]pyrimidin-4-yl)oxy)benzonitrile] |  |  | CC50 (in vitro): > 234 nM
Cc1cc(C#N)cc(C)c1Oc1nc(NC2CC3CCC(C2)N3Cc2ccncc2)nc2ccsc12 (centres unmarked) [8b5, 3,5-Dimethyl-4-((2-((8-(pyridin-4-ylmethyl)-8-azabicyclo-[3.2.1]octan-3-yl)amino)thieno[3,2-d]pyrimidin-4-yl)oxy)benzonitrile] |  |  | SI (CC50/EC50) NL4-3 (WT HIV-1 (NL4-3)): X1^d
Cc1cc(C#N)cc(C)c1Oc1nc(N[C@H]2CCN(Cc3ccc(S(N)(=O)=O)cc3)C2)nc2ccsc12 [8d1, (S)-4-((3-((4-(4-Cyano-2,6-dimethylphenoxy)thieno[3,2-d]-pyrimidin-2-yl)amino)pyrrolidin-1-yl)methyl)benzenesulfonamide] |  |  | CC50 (in vitro): > 233 nM
Cc1cc(C#N)cc(C)c1Oc1nc(NC2CCN(Cc3ccncc3)CC2)nc2c1SCC2 [13a4, 3,5-Dimethyl-4-((2-((1-(pyridin-4-ylmethyl)piperidin-4-yl)amino)-6,7-dihydrothieno[3,2-d]pyrimidin-4-yl)oxy)benzonitrile] | ≥40104 | ≥2305 | 
Cc1cc(C#N)cc(C)c1Oc1nc(NC2CCN(Cc3ccc(C(N)=O)cc3)CC2)nc2c1SCCC2 [13f2, 4-((4-((4-(4-Cyano-2,6-dimethylphenoxy)-7,8-dihydro-6H-thiopyrano[3,2-d]pyrimidin-2-yl)amino)piperidin-1-yl)methyl)benzamide] | >14767 | >476 | 
Cc1cc(C#N)cc(C)c1Oc1nc(NC2CCN(Cc3ccc(C(N)=O)cc3)CC2)nc2c1CCC2 [13d2, 4-((4-((4-(4-Cyano-2,6-dimethylphenoxy)-6,7-dihydro-5H-cyclopenta[d]pyrimidin-2-yl)amino)piperidin-1-yl)methyl)benzamide] | >40984 | >1448 | 
Cc1cc(C#N)cc(C)c1Oc1nc(NC2CCN(Cc3ccncc3)CC2)nc2c1CCC2 [13d4, 3,5-Dimethyl-4-((2-((1-(pyridin-4-ylmethyl)piperidin-4-yl)amino)-6,7-dihydro-5H-cyclopenta[d]pyrimidin-4-yl)oxy)benzonitrile] | >147059 | >5020 | 
Cc1cc(C#N)cc(C)c1Oc1nc(NC2CC3CCC(C2)N3Cc2cccc(C(N)=O)c2)nc2ccsc12 (centres unmarked) [8b3, 3-((3-((4-(4-Cyano-2,6-dimethylphenoxy)thieno[3,2-d]-pyrimidin-2-yl)amino)-8-azabicyclo[3.2.1]octan-8-yl)methyl)benzamide] |  |  | SI (CC50/EC50) NL4-3 (WT HIV-1 (NL4-3)): X1^d
Cc1cc(C#N)cc(C)c1Oc1nc(NC2CCN(Cc3ccc(S(C)(=O)=O)cc3)CC2)nc2c1SCCC2 [13f3, 3,5-Dimethyl-4-((2-((1-(4-(methylsulfonyl)benzyl)piperidin-4-yl)amino)-7,8-dihydro-6H-thiopyrano[3,2-d]pyrimidin-4-yl)oxy)benzonitrile] | ≥872 | ≥34.6 | 
Cc1cc(C#N)cc(C)c1Oc1nc(NC2CCN(Cc3ccc(C(N)=O)cc3)CC2)nc2c1CCCC2 [13e2, 4-((4-((4-(4-Cyano-2,6-dimethylphenoxy)-5,6,7,8-tetrahydroquinazolin-2-yl)amino)piperidin-1-yl)methyl)benzamide] | >38709 | >799 | 
Cc1cc(C#N)cc(C)c1Oc1nc(NC2CCN(Cc3ccc(NS(C)(=O)=O)cc3)CC2)nc2c1CSC2 [13b5, N-(4-((4-((4-(4-Cyano-2,6-dimethylphenoxy)-5,7-dihydrothieno[3,4-d]pyrimidin-2-yl)amino)piperidin-1-yl)methyl)phenyl)methanesulfonamide] | >19670 | >42 | 
Cc1cc(C#N)cc(C)c1Oc1nc(NC2CC3CCC(C2)N3Cc2ccc(C(N)=O)cc2)nc2ccsc12 (centres unmarked) [8b2, 4-((3-((4-(4-Cyano-2,6-dimethylphenoxy)thieno[3,2-d]-pyrimidin-2-yl)amino)-8-azabicyclo[3.2.1]octan-8-yl)methyl)benzamide] |  |  | SI (CC50/EC50) NL4-3 (WT HIV-1 (NL4-3)): X1^d
Cc1cc(C#N)cc(C)c1Oc1nc(NC2CCCN(Cc3ccc(C(N)=O)cc3)CC2)nc2ccsc12 (centres unmarked) [8a2, 4-((4-((4-(4-Cyano-2,6-dimethylphenoxy)thieno[3,2-d]-pyrimidin-2-yl)amino)azepan-1-yl)methyl)benzamide] |  |  | SI (CC50/EC50) NL4-3 (WT HIV-1 (NL4-3)): X1^d
Cc1cc(C#N)cc(C)c1Oc1nc(N[C@H]2CCN(Cc3ccncc3)C2)nc2ccsc12 [8d5, (S)-3,5-Dimethyl-4-((2-((1-(pyridin-4-ylmethyl)pyrrolidin-3-yl)amino)thieno[3,2-d]pyrimidin-4-yl)oxy)benzonitrile] |  |  | CC50 (in vitro): > 273 nM
Cc1cc(C#N)cc(C)c1Oc1nc(NC2CC3CCC(C2)N3Cc2ccc(S(N)(=O)=O)cc2)nc2ccsc12 (centres unmarked) [8b1, 4-((3-((4-(4-Cyano-2,6-dimethylphenoxy)thieno[3,2-d]-pyrimidin-2-yl)amino)-8-azabicyclo[3.2.1]octan-8-yl)methyl)benzenesulfonamide] |  |  | SI (CC50/EC50) NL4-3 (WT HIV-1 (NL4-3)): X1^d
Cc1cc(C#N)cc(C)c1Oc1nc(NC2CCN(Cc3ccc(S(N)(=O)=O)cc3)CC2)nc2c1CCCC2 [13e1, 4-((4-((4-(4-Cyano-2,6-dimethylphenoxy)-5,6,7,8-tetrahydroquinazolin-2-yl)amino)piperidin-1-yl)methyl)benzenesulfonamide] | >37879 | >342 | 
Cc1cc(C#N)cc(C)c1Oc1nc(NC2CCN(Cc3ccc(S(N)(=O)=O)cc3)CC2)nc2c1CCC2 [13d1, 4-((4-((4-(4-Cyano-2,6-dimethylphenoxy)-6,7-dihydro-5H-cyclopenta[d]pyrimidin-2-yl)amino)piperidin-1-yl)methyl)benzenesulfonamide] | >208333 | >9091 | SI L100I (HIV-1 L100I): > 39683; SI K103N (HIV-1 K103N): > 21186; SI Y181C (HIV-1 Y181C): > 16447; SI Y188L (HIV-1 Y188L): > 16667; SI E138K (HIV-1 E138K): > 5543; SI F227L+V106A (HIV-1 F227L+V106A): > 6579
Cc1cc(C#N)cc(C)c1Oc1nc(NC2CCN(Cc3ccc(N)cc3)CC2)nc2c1CSC2 [13b4, 4-((2-((1-(4-Aminobenzyl)piperidin-4-yl)amino)-5,7-dihydrothieno[3,4-d]pyrimidin-4-yl)oxy)-3,5-dimethylbenzonitrile] | >30377 | >364 | 
Cc1cc(C#N)cc(C)c1Oc1nc(NC2CCCN(Cc3ccc(S(N)(=O)=O)cc3)CC2)nc2ccsc12 (centres unmarked) [8a1, 4-((4-((4-(4-Cyano-2,6-dimethylphenoxy)thieno[3,2-d]-pyrimidin-2-yl)amino)azepan-1-yl)methyl)benzenesulfonamide] |  |  | SI (CC50/EC50) NL4-3 (WT HIV-1 (NL4-3)): >100
Cc1cc(C#N)cc(C)c1Oc1nc(NC2CCN(Cc3ccc([N+](=O)[O-])cc3)CC2)nc2c1COC2 [13c5, 3,5-Dimethyl-4-((2-((1-(4-nitrobenzyl)piperidin-4-yl)amino)-5,7-dihydrofuro[3,4-d]pyrimidin-4-yl)oxy)benzonitrile] | ≥1497 | ≥22 | 
Cc1cc(C#N)cc(C)c1Oc1nc(N[C@@H]2CCN(Cc3ccc(C(N)=O)cc3)C2)nc2ccsc12 [8c2, (R)-4-((3-((4-(4-Cyano-2,6-dimethylphenoxy)thieno[3,2-d]-pyrimidin-2-yl)amino)pyrrolidin-1-yl)methyl)benzamide] |  |  | CC50 (in vitro): > 250 nM
Cc1cc(C#N)cc(C)c1Oc1nc(NC2CC3CCC(C2)N3Cc2ccc(S(C)(=O)=O)cc2)nc2ccsc12 (centres unmarked) [8b4, 3,5-Dimethyl-4-((2-((8-(4-(methylsulfonyl)benzyl)-8-azabicyclo[3.2.1]octan-3-yl)amino)thieno[3,2-d]pyrimidin-4-yl)oxy)benzonitrile] |  |  | SI (CC50/EC50) NL4-3 (WT HIV-1 (NL4-3)): X1^d
Cc1cc(C#N)cc(C)c1Oc1nc(NC2CCN(Cc3ccc(S(C)(=O)=O)cc3)CC2)nc2c1CCCC2 [13e3, 3,5-Dimethyl-4-((2-((1-(4-(methylsulfonyl)benzyl)piperidin-4-yl)amino)-5,6,7,8-tetrahydroquinazolin-4-yl)oxy)benzonitrile] | >33333 | >4032 | 
Cc1cc(C#N)cc(C)c1Oc1nc(NC2CCN(Cc3cccc(C(N)=O)c3)CC2)nc2c1SCC2 [13a6, 3-((4-((4-(4-Cyano-2,6-dimethylphenoxy)-6,7-dihydrothieno[3,2-d]pyrimidin-2-yl)amino)piperidin-1-yl)methyl)benzamide] | ≥8048 | ≥355 | 
Cc1cc(C#N)cc(C)c1Oc1nc(N[C@H]2CCN(Cc3cccc(C(N)=O)c3)C2)nc2ccsc12 [8d3, (S)-3-((3-((4-(4-Cyano-2,6-dimethylphenoxy)thieno[3,2-d]-pyrimidin-2-yl)amino)pyrrolidin-1-yl)methyl)benzamide] |  |  | SI (CC50/EC50) NL4-3 (WT HIV-1 (NL4-3)): X1^d
Cc1cc(C#N)cc(C)c1Oc1nc(N[C@@H]2CCN(Cc3cccc(C(N)=O)c3)C2)nc2ccsc12 [8c3, (R)-3-((3-((4-(4-Cyano-2,6-dimethylphenoxy)thieno[3,2-d]-pyrimidin-2-yl)amino)pyrrolidin-1-yl)methyl)benzamide] |  |  | CC50 (in vitro): > 250 nM
